Assay results: patent US9302999B2, “Substituted triazoles as herbicides” (E. I. DU PONT DE NEMOURS AND COMPANY, priority 2012, dated 2016)

Columns and labels:
Assay type in all cases: in vivo
[1] = tested on: barnyardgrass (Echinochloa crus-galli); experiment: Test A pre-/postemergence: barnyardgrass
Procedure, shortened: (§1)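 Visual 0–100 injury ratings (0 no effect, 100 complete control) taken about ten days after treatment, relative to untreated controls. Preemergence treatment was a directed soil spray; postemergence plants were 2–10 cm tall at one- to two-leaf stage. Soil: loam/sand blend.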

[2] = tested on: crabgrass, large (large crabgrass, Digitaria sanguinalis); experiment: Test A pre-/postemergence: crabgrass, large
Procedure, shortened: as §1

[3] = tested on: velvetleaf (Abutilon theophrasti); experiment: Test A pre-/postemergence: velvetleaf
Procedure, shortened: as §1

[4] = tested on: rice (Oryza sativa); experiment: Test B flooded paddy: rice; conditions: Flood, applied to paddy water at 2-leaf stage, visually evaluated after 13 to 15 days
Procedure, shortened: (§2)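 Visual ratings on a 0–100 scale, where 0 means no effect and 100 means complete control, were assigned by comparison with controls 13 to 15 days after treatment. Compounds went into paddy water over 2-leaf plants flooded to 3 cm.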

[5] = tested on: barnyardgrass (Echinochloa crus-galli); experiment: Test B flooded paddy: barnyardgrass; conditions: Flood, applied to paddy water at 2-leaf stage, visually evaluated after 13 to 15 days
Procedure, shortened: as §2

[6] = tested on: corn (Zea mays); experiment: Test A pre-/postemergence: corn
Procedure, shortened: as §1

[7] = tested on: ducksalad (Heteranthera limosa); experiment: Test B flooded paddy: ducksalad; conditions: Flood, applied to paddy water at 2-leaf stage, visually evaluated after 13 to 15 days
Procedure, shortened: as §2

[8] = tested on: morningglory (Ipomoea spp.); experiment: Test A pre-/postemergence: morningglory
Procedure, shortened: as §1

[9] = tested on: foxtail, giant (giant foxtail, Setaria faberii); experiment: Test A pre-/postemergence: foxtail, giant
Procedure, shortened: as §1

[10] = tested on: sedge, umbrella (small-flower umbrella sedge Cyperus difformis); experiment: Test B flooded paddy: sedge, umbrella; conditions: Flood, applied to paddy water at 2-leaf stage, visually evaluated after 13 to 15 days
Procedure, shortened: as §2

[11] = tested on: wheat (Triticum aestivum); experiment: Test A pre-/postemergence: wheat
Procedure, shortened: as §1

[12] = tested on: pigweed (Amaranthus retroflexus); experiment: Test A pre-/postemergence: pigweed
Procedure, shortened: as §1

[13] = Postemergence, 125 g ai/ha, 0 to 100 scale, 0 is no effect, 100 is complete control
[14] = Postemergence, 500 g ai/ha, 0 to 100 scale, 0 is no effect, 100 is complete control
[15] = Preemergence, 125 g ai/ha, 0 to 100 scale where 0 is no effect and 100 is complete control
[16] = Preemergence, 500 g ai/ha, 0 to 100 scale (0 no effect, 100 complete control)

Compound	Plant response rating, Barnyardgrass [1, 13]	Barnyardgrass plant response rating [1, 14]	Plant response rating, Barnyardgrass [1, 15]	Plant response rating, Barnyardgrass [1, 16]	Plant response rating, Crabgrass, Large [2, 13]	Crabgrass, Large plant response rating [2, 14]	Plant response rating, Crabgrass, Large [2, 15]	Plant response rating, Crabgrass, Large [2, 16]	Plant response rating, Velvetleaf [3, 13]	Velvetleaf plant response rating [3, 14]	Plant response rating, Velvetleaf [3, 15]	Plant response rating, Velvetleaf [3, 16]	Plant response rating, Corn [6, 13]	Corn plant response rating [6, 14]	Plant response rating, Corn [6, 15]	Plant response rating, Corn [6, 16]	Plant response rating, Morningglory [8, 13]	Morningglory plant response rating [8, 14]	Plant response rating, Morningglory [8, 15]	Plant response rating, Morningglory [8, 16]	other results
CCOc1nn(-c2ccc(F)cc2)nc1C(=O)c1ccnc(C(F)(F)F)c1 [Compound 177]	0	20	0	70	10	60	90	100	20	50	0	20	20	30	0	0	90	100	20	40	Plant response rating, Rice (0 to 100 scale, 0 is no effect, 100 is complete control) ([4]; 125 g ai/ha): 0; Plant response rating, Barnyardgrass (0 to 100 scale, 0 is no effect, 100 is complete control) ([5]; 125 g ai/ha): 0; Plant response rating, Ducksalad (0 to 100 scale, 0 is no effect, 100 is complete control) ([7]; 125 g ai/ha): 0; Plant response rating, Foxtail, Giant [9, 13]: 20; Foxtail, Giant plant response rating [9, 14]: 70; Plant response rating, Foxtail, Giant [9, 15]: 90; Plant response rating, Foxtail, Giant [9, 16]: 100; Plant response rating, Sedge, Umbrella (0 to 100 scale, 0 is no effect, 100 is complete control) ([10]; 125 g ai/ha): 40; Plant response rating, Wheat [11, 13]: 20; Wheat plant response rating [11, 14]: 30; Plant response rating, Wheat [11, 15]: 0; Plant response rating, Wheat [11, 16]: 0; Plant response rating, Pigweed [12, 13]: 60; Pigweed plant response rating [12, 14]: 100; Plant response rating, Pigweed [12, 15]: 10; Plant response rating, Pigweed [12, 16]: 50
CC(C)Oc1nn(-c2ccc(C(F)(F)F)cc2)nc1Cc1ccnc(C(F)(F)F)c1 [Compound 192]	0	20	0	0	10	30	0	70	20	100	0	0	10	30	0	0	30	70	0	10	Plant response rating, Rice (0 to 100 scale, 0 is no effect, 100 is complete control) ([4]; 250 g ai/ha): 0; Plant response rating, Barnyardgrass (0 to 100 scale, 0 is no effect, 100 is complete control) ([5]; 250 g ai/ha): 0; Plant response rating, Ducksalad (0 to 100 scale, 0 is no effect, 100 is complete control) ([7]; 250 g ai/ha): 0; Plant response rating, Foxtail, Giant [9, 13]: 10; Foxtail, Giant plant response rating [9, 14]: 20; Plant response rating, Foxtail, Giant [9, 15]: 0; Plant response rating, Foxtail, Giant [9, 16]: 80; Plant response rating, Sedge, Umbrella (0 to 100 scale, 0 is no effect, 100 is complete control) ([10]; 250 g ai/ha): 0; Plant response rating, Wheat [11, 13]: 0; Wheat plant response rating [11, 14]: 10; Plant response rating, Wheat [11, 15]: 0; Plant response rating, Wheat [11, 16]: 0; Plant response rating, Pigweed [12, 13]: 40; Pigweed plant response rating [12, 14]: 100; Plant response rating, Pigweed [12, 15]: 10; Plant response rating, Pigweed [12, 16]: 40
CCc1nn(-c2ccc(F)cc2F)nc1Oc1ccnc(C(F)F)c1 [Compound 181]	0	30	0	20	50	50	10	80	30	70	0	0	0	10	0	0	90	90	0	10	Plant response rating, Rice (0 to 100 scale, 0 is no effect, 100 is complete control) ([4]; 125 g ai/ha): 20; Plant response rating, Barnyardgrass (0 to 100 scale, 0 is no effect, 100 is complete control) ([5]; 125 g ai/ha): 0; Plant response rating, Ducksalad (0 to 100 scale, 0 is no effect, 100 is complete control) ([7]; 125 g ai/ha): 0; Plant response rating, Foxtail, Giant [9, 13]: 30; Foxtail, Giant plant response rating [9, 14]: 80; Plant response rating, Foxtail, Giant [9, 15]: 10; Plant response rating, Foxtail, Giant [9, 16]: 80; Plant response rating, Sedge, Umbrella (0 to 100 scale, 0 is no effect, 100 is complete control) ([10]; 125 g ai/ha): 0; Plant response rating, Wheat [11, 13]: 0; Wheat plant response rating [11, 14]: 20; Plant response rating, Wheat [11, 15]: 0; Plant response rating, Wheat [11, 16]: 0; Plant response rating, Pigweed [12, 13]: 90; Pigweed plant response rating [12, 14]: 100; Plant response rating, Pigweed [12, 15]: 60; Plant response rating, Pigweed [12, 16]: 90
